Results reported in ChEMBL document CHEMBL1781986, “Structure-activity relationships of pyrrole based S-nitrosoglutathione reductase inhibitors: pyrrole regioisomers and propionic acid replacement” (Bioorg Med Chem Lett, 2011).
Calls of active or inactive are those of the source. No cut-off for these calls is given here.

Key:
[1] = target: Adrenergic receptor alpha-2 (Homo sapiens) (UniProt P08913+P18825+P18089); experiment: Inhibition of human recombinant alpha2 receptor at 10 uM by radioligand binding assay
[2] = target: Beta-2 adrenergic receptor (Homo sapiens) (UniProt P07550); experiment: Inhibition of human recombinant beta2 receptor at 10 uM by radioligand binding assay
[3] = target: T1, B2 bradykinin receptor (Homo sapiens) (UniProt P30411); experiment: Inhibition of human recombinant B2 bradykinin receptor at 10 uM by radioligand binding assay
T1 sequence (whole entry): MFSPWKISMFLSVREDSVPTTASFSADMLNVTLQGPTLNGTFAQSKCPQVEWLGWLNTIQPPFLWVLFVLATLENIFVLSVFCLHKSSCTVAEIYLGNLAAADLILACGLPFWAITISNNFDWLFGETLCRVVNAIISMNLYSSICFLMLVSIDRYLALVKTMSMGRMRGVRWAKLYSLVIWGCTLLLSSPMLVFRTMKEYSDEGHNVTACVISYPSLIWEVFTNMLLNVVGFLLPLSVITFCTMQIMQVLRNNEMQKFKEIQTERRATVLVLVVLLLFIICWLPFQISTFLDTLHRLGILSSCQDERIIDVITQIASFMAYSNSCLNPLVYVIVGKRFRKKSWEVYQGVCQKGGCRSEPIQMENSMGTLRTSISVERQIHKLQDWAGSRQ

[4] = target: Cannabinoid receptor 1 (Homo sapiens) (UniProt P21554); experiment: Inhibition of human recombinant CB1 receptor at 10 uM by radioligand binding assay
[5] = species on record: Homo sapiens; experiment: Inhibition of human recombinant GABA receptor at 10 uM by radioligand binding assay
[6] = target: T2, Galanin receptor type 2 (Homo sapiens) (UniProt O43603); experiment: Inhibition of human recombinant GAL2 receptor at 10 uM by radioligand binding assay
T2 sequence (whole entry): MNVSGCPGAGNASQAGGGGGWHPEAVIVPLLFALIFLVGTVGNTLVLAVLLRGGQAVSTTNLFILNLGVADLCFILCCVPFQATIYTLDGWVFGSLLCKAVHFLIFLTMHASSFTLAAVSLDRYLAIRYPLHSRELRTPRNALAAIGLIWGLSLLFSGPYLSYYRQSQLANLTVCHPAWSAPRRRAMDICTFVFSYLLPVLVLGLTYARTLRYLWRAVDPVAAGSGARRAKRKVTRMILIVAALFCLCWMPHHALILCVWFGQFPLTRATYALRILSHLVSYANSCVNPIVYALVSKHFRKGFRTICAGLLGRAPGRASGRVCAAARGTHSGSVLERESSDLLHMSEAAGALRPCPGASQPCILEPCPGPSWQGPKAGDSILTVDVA

[7] = target: T3, C-C chemokine receptor type 1 (Homo sapiens) (UniProt P32246); experiment: Inhibition of human recombinant CCR1 receptor at 10 uM by radioligand binding assay
T3 sequence (whole entry): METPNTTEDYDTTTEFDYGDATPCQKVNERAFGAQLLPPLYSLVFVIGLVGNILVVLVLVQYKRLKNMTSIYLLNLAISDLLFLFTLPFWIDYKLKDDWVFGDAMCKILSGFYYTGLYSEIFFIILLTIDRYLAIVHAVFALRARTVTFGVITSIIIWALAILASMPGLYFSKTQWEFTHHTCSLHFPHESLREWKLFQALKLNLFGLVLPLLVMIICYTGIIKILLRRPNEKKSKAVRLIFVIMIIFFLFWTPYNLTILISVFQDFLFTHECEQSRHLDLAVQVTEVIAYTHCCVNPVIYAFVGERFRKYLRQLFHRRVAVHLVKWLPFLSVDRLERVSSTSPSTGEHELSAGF

[8] = target: Melatonin receptor type 1A (Homo sapiens) (UniProt P48039); experiment: Inhibition of human recombinant MT1 receptor at 10 uM by radioligand binding assay
[9] = target: Nociceptin receptor (Homo sapiens) (UniProt P41146); experiment: Inhibition of human recombinant NOP receptor at 10 uM by radioligand binding assay
[10] = target: T4, Thromboxane A2 receptor (Homo sapiens) (UniProt P21731); experiment: Inhibition of human recombinant TP receptor at 10 uM by radioligand binding assay
T4 sequence (whole entry): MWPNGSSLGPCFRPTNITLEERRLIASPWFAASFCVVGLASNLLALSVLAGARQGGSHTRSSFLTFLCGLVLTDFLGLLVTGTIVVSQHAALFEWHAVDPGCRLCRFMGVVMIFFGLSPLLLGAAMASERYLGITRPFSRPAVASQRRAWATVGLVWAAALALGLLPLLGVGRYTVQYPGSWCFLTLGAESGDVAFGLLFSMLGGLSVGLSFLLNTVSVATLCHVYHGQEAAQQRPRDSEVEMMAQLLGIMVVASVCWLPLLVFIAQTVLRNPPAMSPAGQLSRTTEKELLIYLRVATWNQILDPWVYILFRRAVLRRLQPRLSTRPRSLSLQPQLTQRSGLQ

[11] = target: T5, 5-hydroxytryptamine receptor 1A (Homo sapiens) (UniProt P08908); experiment: Inhibition of human recombinant 5HT1A receptor at 10 uM by radioligand binding assay
T5 sequence (whole entry): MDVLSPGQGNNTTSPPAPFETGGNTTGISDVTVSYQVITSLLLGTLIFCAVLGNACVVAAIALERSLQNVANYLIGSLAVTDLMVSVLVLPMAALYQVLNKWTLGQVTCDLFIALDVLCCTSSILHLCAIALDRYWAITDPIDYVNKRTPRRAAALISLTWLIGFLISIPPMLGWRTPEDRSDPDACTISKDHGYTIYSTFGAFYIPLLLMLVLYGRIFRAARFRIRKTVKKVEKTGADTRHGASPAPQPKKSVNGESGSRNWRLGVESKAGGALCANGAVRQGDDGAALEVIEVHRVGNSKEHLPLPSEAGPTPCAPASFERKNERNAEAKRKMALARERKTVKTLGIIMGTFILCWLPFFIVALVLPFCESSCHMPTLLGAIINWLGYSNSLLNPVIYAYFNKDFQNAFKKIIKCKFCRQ

[12] = target: 5-hydroxytryptamine receptor 5A (Homo sapiens) (UniProt P47898); experiment: Inhibition of human recombinant 5HT5A receptor at 10 uM by radioligand binding assay
[13] = species on record: Homo sapiens; experiment: Inhibition of human recombinant sst receptor at 10 uM by radioligand binding assay
[14] = target: Vasopressin V1a receptor (Homo sapiens) (UniProt P37288); experiment: Inhibition of human recombinant V1a receptor at 10 uM by radioligand binding assay
[15] = target: Voltage-gated L-type calcium channel (Homo sapiens, UniProt Q13936+Q13698+Q01668+O60840); experiment: Inhibition of human recombinant L-type Ca2+ channel at 10 uM by radioligand binding assay
[16] = species on record: Homo sapiens; experiment: Inhibition of human recombinant sodium channel at 10 uM by radioligand binding assay

Vasopressin V1a receptor (Homo sapiens), sequence (P37288 whole entry, looked up): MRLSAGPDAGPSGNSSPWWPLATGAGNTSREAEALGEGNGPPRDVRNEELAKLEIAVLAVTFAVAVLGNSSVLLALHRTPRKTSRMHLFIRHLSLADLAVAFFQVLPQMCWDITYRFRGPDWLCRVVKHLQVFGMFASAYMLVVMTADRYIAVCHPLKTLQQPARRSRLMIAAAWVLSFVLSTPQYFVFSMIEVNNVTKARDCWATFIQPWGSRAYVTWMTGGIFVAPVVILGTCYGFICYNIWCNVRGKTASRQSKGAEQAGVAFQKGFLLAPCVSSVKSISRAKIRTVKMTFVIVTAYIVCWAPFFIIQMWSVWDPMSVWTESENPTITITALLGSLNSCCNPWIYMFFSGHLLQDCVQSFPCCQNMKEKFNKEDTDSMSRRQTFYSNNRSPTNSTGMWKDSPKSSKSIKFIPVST
Cannabinoid receptor 1 (Homo sapiens), sequence (P21554 whole entry): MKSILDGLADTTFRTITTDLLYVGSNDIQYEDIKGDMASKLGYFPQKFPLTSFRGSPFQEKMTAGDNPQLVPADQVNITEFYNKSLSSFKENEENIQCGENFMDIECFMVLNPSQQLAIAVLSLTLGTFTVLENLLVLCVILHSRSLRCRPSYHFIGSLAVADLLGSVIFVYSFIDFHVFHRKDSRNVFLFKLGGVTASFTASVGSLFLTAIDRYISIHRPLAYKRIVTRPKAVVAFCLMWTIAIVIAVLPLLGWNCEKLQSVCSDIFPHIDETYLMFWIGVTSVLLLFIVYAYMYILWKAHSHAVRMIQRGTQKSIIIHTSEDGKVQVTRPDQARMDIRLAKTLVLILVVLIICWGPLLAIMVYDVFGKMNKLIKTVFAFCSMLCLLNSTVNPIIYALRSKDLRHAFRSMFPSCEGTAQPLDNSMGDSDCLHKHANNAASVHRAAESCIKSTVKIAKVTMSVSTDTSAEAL
Beta-2 adrenergic receptor (Homo sapiens), sequence (P07550 whole entry, looked up): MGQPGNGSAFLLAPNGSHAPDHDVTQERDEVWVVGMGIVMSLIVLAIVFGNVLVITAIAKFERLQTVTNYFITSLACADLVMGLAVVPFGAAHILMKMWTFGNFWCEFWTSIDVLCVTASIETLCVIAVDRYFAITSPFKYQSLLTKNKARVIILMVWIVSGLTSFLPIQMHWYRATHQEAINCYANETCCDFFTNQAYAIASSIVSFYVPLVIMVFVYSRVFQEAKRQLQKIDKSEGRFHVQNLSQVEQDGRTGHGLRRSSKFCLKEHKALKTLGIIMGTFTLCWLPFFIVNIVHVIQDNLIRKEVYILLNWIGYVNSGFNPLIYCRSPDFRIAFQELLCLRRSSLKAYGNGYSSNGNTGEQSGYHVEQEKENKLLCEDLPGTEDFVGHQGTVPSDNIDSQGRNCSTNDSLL
Nociceptin receptor (Homo sapiens), sequence (P41146 whole entry): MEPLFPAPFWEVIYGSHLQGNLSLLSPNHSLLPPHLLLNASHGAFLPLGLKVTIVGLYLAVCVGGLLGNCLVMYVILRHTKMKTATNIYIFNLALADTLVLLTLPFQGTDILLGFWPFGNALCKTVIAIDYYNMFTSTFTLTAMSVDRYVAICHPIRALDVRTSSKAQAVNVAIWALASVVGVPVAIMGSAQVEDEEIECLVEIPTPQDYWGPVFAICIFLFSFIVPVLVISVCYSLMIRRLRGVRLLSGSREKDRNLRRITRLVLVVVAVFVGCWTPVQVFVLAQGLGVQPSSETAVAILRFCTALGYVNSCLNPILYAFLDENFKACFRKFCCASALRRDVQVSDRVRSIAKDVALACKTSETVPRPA
Melatonin receptor type 1A (Homo sapiens), sequence (P48039 whole entry): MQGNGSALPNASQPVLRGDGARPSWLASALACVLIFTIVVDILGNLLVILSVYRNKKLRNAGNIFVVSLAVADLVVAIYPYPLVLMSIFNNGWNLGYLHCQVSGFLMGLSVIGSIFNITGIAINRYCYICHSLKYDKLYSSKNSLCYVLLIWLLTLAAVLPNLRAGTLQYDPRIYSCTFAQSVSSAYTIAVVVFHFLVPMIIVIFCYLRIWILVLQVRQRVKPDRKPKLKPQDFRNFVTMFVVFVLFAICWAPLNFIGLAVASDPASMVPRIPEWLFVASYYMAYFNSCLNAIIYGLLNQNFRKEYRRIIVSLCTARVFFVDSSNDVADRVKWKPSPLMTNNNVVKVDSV
5-hydroxytryptamine receptor 5A (Homo sapiens), sequence (P47898 whole entry): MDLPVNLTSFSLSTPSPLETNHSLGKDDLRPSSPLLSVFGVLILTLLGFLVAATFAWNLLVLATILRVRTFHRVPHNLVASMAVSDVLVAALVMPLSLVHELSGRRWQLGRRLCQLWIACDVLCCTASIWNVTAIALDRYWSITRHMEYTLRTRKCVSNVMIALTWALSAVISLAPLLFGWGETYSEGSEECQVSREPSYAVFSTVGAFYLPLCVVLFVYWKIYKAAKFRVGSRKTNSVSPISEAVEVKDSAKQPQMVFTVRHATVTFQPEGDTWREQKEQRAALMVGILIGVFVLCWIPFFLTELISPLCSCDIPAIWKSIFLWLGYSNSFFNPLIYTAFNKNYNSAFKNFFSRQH

SMILES	inhibition [1]	inhibition [2]	inhibition [3]	inhibition [4]	inhibition [5]	inhibition [6]	inhibition [7]	inhibition [8]	inhibition [9]	inhibition [10]	inhibition [11]	inhibition [12]	inhibition [13]	inhibition [14]	inhibition (INH) [15]	inhibition [16]
Cc1cc(C(N)=O)ccc1-c1c(CCC(=O)O)ccn1-c1ccc(-n2ccnc2)cc1	inactive	inactive	inactive	inactive	inactive	inactive	inactive	inactive	inactive	inactive	inactive	inactive	inactive	inactive	Not Active	inactive
Cc1cc(C(N)=O)ccc1-n1c(CCC(=O)O)ccc1-c1ccc(-n2ccnc2)cc1 [N6022]	inactive	inactive	inactive	inactive	inactive	inactive	inactive	inactive	inactive	inactive	inactive	inactive	inactive	inactive	Not Active	inactive
Cc1cc(C(N)=O)ccc1-c1c(-c2ccc(-n3ccnc3)cc2)ccn1CCC(=O)O	inactive	inactive	inactive	inactive	inactive	inactive	inactive	inactive	inactive	inactive	inactive	inactive	inactive	inactive	Not Active	inactive

Results, then the compound that gave them:

inhibition [1]	inhibition [2]	inhibition [3]	inhibition [4]	inhibition [5]	inhibition [6]	inhibition [7]	inhibition [8]	inhibition [9]	inhibition [10]	inhibition [11]	inhibition [12]	inhibition [13]	inhibition [14]	inhibition (INH) [15]	inhibition [16]	SMILES
Active	Active	Active	Active	Active	Active	Active	Active	Active	Active	Active	Active	Active	Active	Active	Active	COc1ccc(-c2ccn(-c3ccc(O)c([N+](=O)[O-])c3)c2-c2ccc(C(N)=O)cc2C)cc1
Active	Active	Active	Active	Active	Active	Active	Active	Active	Active	Active	Active	Active	Active	Active	Active	COc1ccc(-c2ccn(-c3ccc(C(=O)O)c(O)c3)c2-c2ccc(C(N)=O)cc2C)cc1
